Here are results for 9 molecules from DBAASP.

The structures appear in SMILES notation. In brackets after ≈: the same amount, converted by molar mass.

Some test systems named below: Escherichia coli AS1.349; Bacillus cereus AS1.126; Escherichia coli K91BK; Staphylococcus aureus; Escherichia coli JM109; Escherichia coli BL21AI.
Common to all, as to test: ≥ marks a high value that may be exact or a test limit, other limits are often not marked, values filed in µg/mL are converted to µM
The subject of assay [1] is Bacillus subtilis KCTC 1918.
Assay [2] concerns Pseudomonas aeruginosa KCTC 1637.
The subject of assay [3] is Salmonella typhimurium KCTC 1926.
Assay [4] deals with Escherichia coli KCTC 1682.
Assay [5] concerns Staphylococcus aureus KCTC 1621.
The test system of assay [6] is Streptococcus pyogenes KCTC 3096.
Assay [7] relates to Escherichia coli ATCC 43827.
Assay [8] concerns Escherichia coli ATCC 11775.
Assay [9] relates to Pseudomonas aeruginosa ATCC 27853.
Assay [10] deals with Staphylococcus aureus ATCC 25923.
Assay [11] relates to Escherichia coli ATCC 25922.
Assay [12] has as its system Lactococcus lactis AS1.1690.
For assay [13], the system named is Klebsiella pneumoniae subsp. pneumoniae CGMCC 1.176.
The test system of assay [14] is Pseudomonas aeruginosa CGMCC 1.860.
The test system of assay [15] is Staphylococcus aureus AS1.72.
For assay [16], the system named is Klebsiella aerogenes CGMCC 1.876.
Assay [17] concerns Enterococcus faecalis CGMCC 1.595.
Assay [18] concerns Enterococcus faecium CGMCC 1.2334.
The test system of assay [19] is Enterobacter cloacae CGMCC 1.58.
The subject of assay [20] is Bacillus anthracis Sterne 34F2.
Assay [21] deals with Bacillus subtilis var. niger ATCC 9372.
The test system of assay [22] is Enterococcus faecalis ATCC 29212.
In assay [23] the test system is Mycobacterium tuberculosis H37Rv.
The subject of assay [24] is Streptococcus pneumoniae ATCC 49619.
In assay [25] the test system is Staphylococcus aureus ATCC 6538P.
The subject of assay [26] is Micrococcus luteus ATCC 10240.

What is called MIC is the lowest concentration found to suppress growth.

For `CC[C@H](C)[C@H](NC(=O)[C@@H](NC(=O)[C@@H](N)CCCN=C(N)N)[C@@H](C)CC)C(=O)N[C@@H](CC(=O)O)C(=O)N[C@@H](CC(C)C)C(=O)N[C@@H](CC(C)C)C(=O)N[C@@H](C)C(=O)N[C@@H](CCCN=C(N)N)C(=O)N[C@H](C(=O)N[C@@H](CCCN=C(N)N)C(=O)N[C@@H](CCCN=C(N)N)C(=O)N1CCC[C@H]1C(=O)N[C@@H](CCC(N)=O)C(=O)N[C@@H](CCCCN)C(=O)N1CCC[C@H]1C(=O)N[C@@H](CCCCN)C(=O)N[C@@H](Cc1ccccc1)C(=O)N[C@H](C(=O)N[C@H](C(=O)N[C@H](C(=O)N[C@@H](Cc1c[nH]c2ccccc12)C(=O)N[C@H](C(=O)N[C@@H](CCCN=C(N)N)C(=O)O)C(C)C)C(C)C)[C@@H](C)O)C(C)C)C(C)C` [RIIDLLARVRRPQKPKFVTVWVR], the MIC in [1] amounted to 1.56 µM (≈ 4.44 µg/mL); in [2] it was 1.56 µM (≈ 4.44 µg/mL); in [3], 1.56 µM (≈ 4.44 µg/mL); in assay [4] it was 3.12 µM (≈ 8.9 µg/mL); in assay [5], 3.12 µM (≈ 8.9 µg/mL); in assay [6], 1.56 µM (≈ 4.44 µg/mL).
Turning to `CSCC[C@H](NC(=O)[C@H](CCCN=C(N)N)NC(=O)[C@H](Cc1c[nH]c2ccccc12)NC(=O)[C@H](CCC(N)=O)NC(=O)[C@H](Cc1c[nH]c2ccccc12)NC(=O)[C@H](CCCN=C(N)N)NC(=O)[C@@H](N)CCCN=C(N)N)C(=O)N[C@@H](CCCCN)C(=O)N[C@@H](CCCCN)C(=O)N[C@@H](CC(C)C)C(=O)NCC(=O)O` [RRWQWRMKKLG], the MIC turned out to be 7 µM (≈ 10.8 µg/mL) in assay [7]; 15 µM (≈ 23.2 µg/mL) in assay [8]; 15 µM (≈ 23.2 µg/mL) in assay [9]; 30 µM (≈ 46.3 µg/mL) in assay [10]; 15 µM (≈ 23.2 µg/mL) in assay [11].
For the molecule `NC(N)=NCCC[C@H](NC(=O)[C@H](CCCN=C(N)N)NC(=O)[C@H](Cc1c[nH]c2ccccc12)NC(=O)[C@H](Cc1ccccc1)NC(=O)[C@H](CCCN=C(N)N)NC(=O)[C@H](CCCN=C(N)N)NC(=O)[C@H](Cc1c[nH]c2ccccc12)NC(=O)[C@@H](N)CCCN=C(N)N)C(=O)O` [RWRRFWRR], the MIC in assay [12] is 6.25 µM (≈ 8.24 µg/mL); in [13], at least 100 µM; in [14], 6.25 µM (≈ 8.24 µg/mL); in assay [15] it was 6.25 µM (≈ 8.24 µg/mL); in assay [16] it was at least 100 µM; in assay [17] it was 12.5 µM (≈ 16.5 µg/mL). Besides, the minimum inhibitory concentration (MIC) in the assay with Escherichia coli AS1.349 was at least 50 µM; in [18], 12.5 µM (≈ 16.5 µg/mL); against Bacillus cereus AS1.126 it was 3.13 µM (≈ 4.13 µg/mL); in assay [19] it was at least 100 µM.
For `CC[C@H](C)[C@H](NC(=O)CNC(C)=O)C(=O)NCC(=O)N[C@@H](CCCCN)C(=O)N[C@@H](Cc1ccccc1)C(=O)N[C@@H](CC(C)C)C(=O)N[C@@H](CCCCN)C(=O)N[C@@H](CCCCN)C(=O)N[C@@H](C)C(=O)N[C@@H](CCCCN)C(=O)N[C@@H](CCCCN)C(=O)N[C@@H](Cc1ccccc1)C(=O)NCC(=O)N[C@@H](CCCCN)C(=O)N[C@@H](C)C(=O)N[C@@H](Cc1ccccc1)C(=O)N[C@H](C(=O)N[C@@H](CCCCN)C(=O)N[C@H](C(=O)N[C@@H](CC(C)C)C(=O)N[C@@H](CCCCN)C(=O)N[C@@H](CCCCN)C(N)=O)[C@@H](C)CC)C(C)C` [GIGKFLKKAKKFGKAFVKILKK], the figures for the minimal inhibitory concentration (MIC) (in the assay on Escherichia coli K91BK; in assay [20]; in [21]) were at least 100 µM, 25 µM (≈ 63 µg/mL) and 1.56 µM (≈ 3.93 µg/mL), respectively.
On to `CSCC[C@H](NC(=O)[C@H](CCCN=C(N)N)NC(=O)[C@H](Cc1c[nH]c2ccccc12)NC(=O)[C@H](CCC(N)=O)NC(=O)[C@H](Cc1c[nH]c2ccccc12)NC(=O)[C@H](CCCN=C(N)N)NC(=O)[C@H](CCCN=C(N)N)NC(=O)[C@H](C)NC(=O)[C@H](CCCCN)NC(=O)[C@@H](N)Cc1ccccc1)C(=O)N[C@@H](CCCCN)C(=O)N[C@@H](CCCCN)C(=O)N[C@@H](CC(C)C)C(=O)NCC(=O)N[C@@H](C)C(=O)O` [FKARRWQWRMKKLGA], for which the minimum inhibitory concentration (MIC) in [7] is 12 µM (≈ 23.5 µg/mL); in assay [8], at least 48 µM; in assay [9] it was 48 µM (≈ 94.2 µg/mL); in assay [10], 48 µM (≈ 94.2 µg/mL); in assay [11] it was 24 µM (≈ 47.1 µg/mL); in assay [22] it was 48 µM (≈ 94.2 µg/mL).
Turning to `NCCCC[C@H](NC(=O)CNC(=O)CNC(=O)[C@H](CCCCN)NC(=O)[C@H](CCCCN)NC(=O)[C@H](Cc1cnc[nH]1)NC(=O)[C@H](CS)NC(=O)[C@H](CCC(N)=O)NC(=O)[C@H](CCCCN)NC(=O)[C@@H](N)Cc1ccc(O)cc1)C(=O)N[C@@H](CCCCN)C(=O)NCC(=O)N[C@@H](CO)C(=O)NCC(N)=O` [YKQCHKKGGKKGSG], the MIC in [23] and in [24] was at least 300 µM throughout.
Regarding `CC[C@H](C)[C@H](NC(=O)[C@H](C)NC(=O)[C@H](CC(C)C)NC(=O)[C@H](CS)NC(=O)[C@H](CCCN=C(N)N)NC(=O)[C@H](C)NC(=O)[C@H](C)NC(=O)[C@H](CS)NC(=O)[C@@H](N)CC(C)C)C(=O)NCC(=O)N[C@@H](CCCN=C(N)N)C(=O)N[C@@H](CCCN=C(N)N)C(N)=O` [LCAARCLAIGRR], the MIC in assay [25] was 5.76 µM (≈ 7.49 µg/mL); with Staphylococcus aureus, over 49.1 µM; against Escherichia coli JM109, 24.6 µM (≈ 32 µg/mL).
Turning to `CC[C@H](C)[C@H](NC(=O)[C@H](CCCN=C(N)N)NC(=O)[C@@H]1CCCN1C(=O)[C@H](Cc1cnc[nH]1)NC(=O)[C@@H]1CCCN1C(=O)[C@@H]1CCCN1C(=O)[C@H](CCCN=C(N)N)NC(=O)[C@@H]1CCCN1C(=O)[C@H](CCC(N)=O)NC(=O)[C@@H]1CCCN1C(=O)[C@@H](NC(=O)[C@H](Cc1ccc(O)cc1)NC(=O)[C@@H](NC(=O)[C@@H]1CCCN1C(=O)[C@H](CCCN=C(N)N)NC(=O)[C@H](CC(N)=O)NC(=O)[C@@H](N)CC(N)=O)C(C)C)[C@@H](C)CC)C(N)=O` [NNRPVYIPQPRPPHPRI], the MIC is 15.2 µM (≈ 31.2 µg/mL) in [26] and 1.91 µM (≈ 3.91 µg/mL) in the assay on Escherichia coli BL21AI.
Consider `CC(=O)N[C@@H](CCCCN)C(=O)N[C@@H](CC(C)C)C(=O)N[C@@H](Cc1c[nH]c2ccccc12)C(=O)N[C@@H](CCCCN)C(=O)N[C@@H](CCCCN)C(=O)N[C@@H](Cc1c[nH]c2ccccc12)C(=O)N[C@@H](CCCCN)C(=O)N[C@@H](CCCCN)C(=O)N[C@@H](Cc1c[nH]c2ccccc12)C(=O)N[C@@H](CCCCN)C(=O)N[C@@H](CCCCN)C(N)=O` [KLWKKWKKWKK], for which the MIC in the assay with Escherichia coli K91BK was at least 100 µM; in [20], at least 100 µM; in assay [21] it was 25 µM (≈ 40.7 µg/mL).
